Source: patent US6256527A, “Method for determining oxygen concentration” (Nycomed Imaging AS, priority 1995, dated 2001)

How the values were obtained:
Format in all cases: physicochemical
[1] = ESR line widths of nitroxides in degassed benzene
Source text: The ESR-spectral properties of a series of partially and fully deuterated nitroxides (compounds 3b-d) also useful in the method of the invention have been investigated. These radicals are derived from 2,5-di-t-butyl-3,4-dimethoxycarbonyl-pyrryloxyl (Compound 3a) and were investigated alongside Tempone (4-oxo-2,2,6,6-tetramethyl-piperidine-1-oxyl, 1) and CTPO (3-carbamoyl-2,2,5,5-tetramethyl-pyrroline-1-yloxyl, 2a) which are typical examples of nitroxides frequently used for imaging purposes.
Instrumentation. The ESR-spectra were recorded by the Upgrade Version ESP 3220-200SH of a Bruker ER-200D SRC instrument at 22°. The radical concentration was in the range 0.1-0.2 mM and the modulation amplitude was 10 mG. The microwave power was well below saturation. NMR-spectra were recorded on a Varian XL-300 spectrometer. Mass spectra were recorded on a VG Quattor II instrument equipped with ESPC electrospray. GLC analyses were performed on a HP 5830 ser II instrument, equipped with a fused-silica column (30 m, 0.25 μm, HP-1701). TLC analyses and column chromotographic separations were performed on Silica Gel 60, using heptane/ether as the eluent.
Preparation of pyrryloxyl radicals. To a degassed solution of 2 mg of the hydroxylamine 7a-7d in 2 ml of benzene was added ca. 10 mg NiOOH. After 5 min the suspension was filtered and the pale green blue solution was diluted with degassed benzene in order to obtain a solution suitable for ESR.
ESR-measurements. Summarised in Table 5 are the ESR line widths for the nitroxides discussed above. […] Perdeuteration results in a reduction of the line width by a factor of 2.2 for 1 and of 2.5 for 2b. […] The spin density distributions, nitrogen coupling constants and intrinsic line widths for 3d are compared in Table 6 to other nitroxides.

[2] = Relaxivity from NMRD profiles in water, plasma and blood; conditions: water
Method: (§1) The following four water soluble, single ESR line trityls were investigated by NMRD, Dynamic Nuclear Polarisation (DNP) and ESR (Examples 1-4).
(§2) The relaxivity and DNP enhancement data were measured in water, plasma and blood at 23° C. and 37° C. The results are set out in Tables 1 and 2.

[3] = Electron spin relaxation rates (radical concentration dependent) from CW ESR spectra and DNP data; conditions: water (isotonic saline)
Method: as §1
Electron spin relaxation rates were measured by analysis of CW ESR spectra and DNP data at 23° C. and 37° C. in water, isotonic saline, plasma and blood for the deuterated hydroxy trityl and in water and isotonic saline for the perdeuterated and symmetric trityl.

[4] = DNP (Overhauser) enhancement and DNP-curve relaxivity at infinite concentration and power; conditions: water
Source text: The calibration data are generated by determining Overhauser enhancement values for the radical in the selected body fluid, at the selected temperature and at a range of oxygen (and preferably also radical) concentrations. The intrinsic esr relaxation times for the radical can be determined, under the same conditions, using a conventional esr spectrometer equipped with a temperature controller, with oxygen concentration being determined using the method of Ravin et al J. Appl. Physiol. 18:784-790(1964), a method known to produce accurate and reproducible results.
as §1, §2

CC1(C)CC(=O)CC(C)(C)N1[O] [Compound 1, 4-oxo-2,2,6,6-tetramethyl-piperidine-1-oxyl, reference compound]
ESR Line width ([1]; benzene, 23° C.): 602 mg | reduction of the line width by perdeuteration (factor) ([1]; degassed benzene, 22° C.): 2.2

[2H]C([2H])([2H])C1(C([2H])([2H])[2H])N([O])C(C([2H])([2H])[2H])(C([2H])([2H])[2H])C([2H])([2H])C(=O)C1([2H])[2H] [Compound 1-d16, 4-oxo-2,2,6,6-tetramethyl-piperidine-d16-1-oxyl, reference compound]
ESR Line width ([1]; benzene, 23° C.): 266 mg

[2H]C([2H])([2H])C(c1c(C(=O)OC)c(C(=O)OC)c(C(C([2H])([2H])[2H])(C([2H])([2H])[2H])C([2H])([2H])[2H])n1[O])(C([2H])([2H])[2H])C([2H])([2H])[2H] [Compound 3c]
ESR Line width ([1]; benzene, 23° C.): 219 mg | influence of deuteration of the t-butyl groups alone on line width, 3a:3c ([1]; degassed benzene, 22° C.): almost no influence

[2H]C([2H])([2H])OC(=O)c1c(C(=O)OC([2H])([2H])[2H])c(C(C([2H])([2H])[2H])(C([2H])([2H])[2H])C([2H])([2H])[2H])n([O])c1C(C([2H])([2H])[2H])(C([2H])([2H])[2H])C([2H])([2H])[2H] [Compound 3d]
ESR Line width ([1]; benzene, 23° C.): 113 mg | decrease of line width by deuteration of the alkyl groups of the ester moiety, 3c:3d (factor) ([1]; degassed benzene, 22° C.): 1.9 | ESR Line width ([1]; degassed benzene, 22° C., high dilution): 113 mg | nitrogen coupling constant ([1]; in benzene): 4.4 G

[2H]C([2H])([2H])OC(=O)c1c(C(=O)OC([2H])([2H])[2H])c(C(C)(C)C)n([O])c1C(C)(C)C [Compound 3b]
ESR Line width ([1]; benzene, 23° C.): 172 mg

CC(C)(C)c1c(C(=O)O)c(C(=O)O)c(C(C)(C)C)n1O [Compound 4, 2.5-di-t-butyl-N-hydroxy-pyrrol-3,4-dicarboxylic acid]
ESR line width compared with 3b ([1]; upon treatment with NiOOH): almost identical to that of 3b

Tris-(8-sodium carboxylate-2,2,6,6-tetrakis-(^2 H3 -methyl)-benzo[1,2-d:4,5-d']-bis(1,3) dithiole)methyl [symmetric trityl]
Relaxivity ([2]; 23° C.): 0.21 mM⁻¹ s⁻¹ | Relaxivity ([2]; 37° C.): 0.15 mM⁻¹ s⁻¹ | 2(3γe T1e)^-1, concentration dependent relaxation rate (peak-to-peak) ([3]; 23° C.): 13.2 ± 0.5 mg/mM | 2(3γe T2e)^-1, concentration dependent relaxation rate (peak-to-peak) ([3]; 23° C.): 35.4 ± 0.6 mg/mM | 2(3γe T1e)^-1, concentration dependent relaxation rate (peak-to-peak) ([3]; 37° C.): 17.7 ± 0.8 mg/mM | 2(3γe T2e)^-1, concentration dependent relaxation rate (peak-to-peak) ([3]; 37° C.): 33.1 ± 0.3 mg/mM | A. (enhancement at infinite concentration and power) [4]: 266

CC1(C)C=C(C(=O)O)C(C)(C)N1[O] [Compound 2b, 2,2,5,5-tetramethyl-3-pyrrolin-1-oxyl-3-carboxylic acid, reference compound]
ESR Line width ([1]; benzene, 23° C.): 1032 mg | reduction of the line width by perdeuteration (factor) ([1]; degassed benzene, 22° C.): 2.5

[2H]C1=C(C(=O)O)C(C([2H])([2H])[2H])(C([2H])([2H])[2H])N([O])C1(C([2H])([2H])[2H])C([2H])([2H])[2H] [Compound 2b-d13, 2,2,5,5-tetramethyl-3-pyrrolin-d13-oxyl-3-carboxylic acid, reference compound]
ESR Line width ([1]; benzene, 23° C.): 407 mg

COC(=O)c1c(C(=O)OC)c(C(C)(C)C)n([O])c1C(C)(C)C [Compound 3a, 2,5-di-t-butyl-3,4-dimethoxycarbonyl-pyrryloxyl]
ESR Line width ([1]; benzene, 23° C.): 228 mg
